Test results reported in patent publication US7731971B2, “Enhanced CTL epitope-containing HIV-1 reverse transcriptase polypeptides” (The United States of America as represented by the …, priority 2003, dated 2010).

Experiments:
[1] = test system: vaccinia virus expressing a reverse transcriptase protein of HIV (vCF21); parameters: species or system HHD-2 mice; settings: mouse, in vivo
[2] = test system: vaccinia virus expressing a β-galactosidase protein (vSC8); parameters: species or system HHD-2 mice; settings: mouse, in vivo

YLYQYMDDV
protection against vCF21 infection [1]: only partially protected
protection against vaccinia strain (vSC8) that does not express RT [2]: Neither population of mice displayed protection
